A short description of the series: method code SF, from Hansch, C. & Leo, A. (1987). Log P database [Dataset]. Pomona College Medicinal Chemistry Project.

The results in this text go back to the SangsterLogP compilation.

What is called logP is the decadic logarithm of the partition coefficient of the neutral form, usually between octanol and water. High values mean higher lipophilicity, low ones lower lipophilicity. What is called logD is the decadic logarithm of the distribution of all forms, ionised or not, between an organic phase and buffer at a given pH. Low readings indicate a more hydrophilic compound, high ones a more lipophilic compound.

`COC(=O)c1ccccc1C` had a logP of 2.75.
Still for that read-out and setting: for `COc1cc(C(=O)C=CN2CC=CC2)cc(OC)c1OC` the value was 1.77; for `COC(=O)c1ccsc1`, 1.76; for `Cc1ccccn1`, 1.11.
Still for that read-out and setting: for `CCOC(=O)C(=Cc1ccc(OC)cc1OC)C(C)=O` the value was 2.41; for `O=C1Cc2ccccc2CCc2ccccc21`, 2.58.
Same read-out and setting: for `OC(O)C(Cl)(Cl)Cl` the value was 0.99; for `O=NN(CCCl)C(=O)NC(C(=O)O)C1CCCCC1` (centres undefined), -0.63; for `O=c1[nH]nc(Sc2ccccc2)[nH]1`, 1.46.
Consider `O=C1CC(=O)c2ccccc21`, for which the logP was 0.61.
Compound `NC(=O)C(=Cc1cccc(F)c1)C(N)=O` gave a logP of 0.1.
Same read-out and setting: for `N#CCc1ccsc1` the value was 1.26.
Same read-out and setting: for `Cc1cc(CSc2ccccc2Cl)c(O)c(C(=O)O)c1` the value was 4.69.
As to `CC(=O)c1cccc(N2C(N)=NC(N)=NC2(C)C)c1`, the logD (pH 13.0) was -0.22.
The compound `N#C/N=N/c1ccccc1` displayed a logP of 2.3.
The compound `CCCc1c(OCCCCc2nnn[nH]2)ccc(C(C)=O)c1O` yielded a logD (pH 2.2) of 3.82.
In turn, `Cc1cccc(C(N)=O)c1` had a logP of 1.18.
The same measure, in the same setting: for `NC(=O)c1cccc(C(N)=O)c1` the value was -0.21.
On the same count and under the same terms, then `CCCCCc1cn[nH]c1`, with 2.96; and `O=C1CCC2CCCCC2C1` (centres undefined), with 1.97; and `CC(Cl)(Cl)Cl`, with 2.49.
On the same count and under the same terms, for `Cc1ccc(Cl)cc1C` the value was 3.82; for `CCNC(=O)CBr`, 0.34; for `CNC(=O)CSP(=S)(OC)OC`, 0.8.
Turning to `CNN=CCCc1ccccc1`, the logD (pH 7.4) turned out to be 1.
Compound `CCOC(=O)C(=Cc1cccc(F)c1)C(=O)OCC` displayed a logP of 3.19.
For `Oc1cc(-c2ccccc2)on1`, the log distribution coefficient (logD) (pH 1.0) was 2.55.
As for `O=Cc1cccc(C(F)(F)F)c1`, the logP came to 2.47.
For `O=C(O)c1ccncc1`, the logP was -0.57.
Same read-out and setting: for `CC(C)(C)C(=O)Nc1ccc(Cl)c(Cl)c1` the value was 3.88.
`CCC[C@@H]1C[C@@H](C(=O)N[C@@H]([C@H]2O[C@H](SC)[C@H](O)[C@@H](O)[C@H]2O)[C@@H](C)O)N(CC)C1` displayed a logD (pH 12.0) of 1.02.
Compound `O=C(O)c1cccc([N+](=O)[O-])c1C(=O)O` came in with a log distribution coefficient (logD) (pH 1.0) of 0.75.
`COc1cccc(C=C(C(N)=O)C(N)=O)c1` returned a logP of 0.01.
The same measure, in the same setting: for `O=C1C(NCC(O)CO)=C(N2CC2)C(=O)C(NCC(O)CO)=C1N1CC1` (centres undefined) the value was -1.97.
Same read-out and setting: for `COc1ccc(C(=O)N(C)C)cc1` the value was 0.96.
In the case of `Cc1cccc(OC(=O)CNC(=O)c2ccccc2)c1`, the logP was 2.72.
The same measure, in the same setting: for `CCCCC1OC(=O)c2cc([N+](=O)[O-])ccc21` (centres undefined) the value was 2.92; for `CCOP(=O)(OCC)SCSCC`, 2.07.
On to `CCOP(=S)(OCC)SCn1nnc2ccccc2c1=O`, for which the logP came out at 3.4.
Regarding `Cc1c(-c2ccccc2)oc2ccccc2c1=O`, the logP was 3.92.
Under “pH 13.0”, `Nc1cn[nH]c1` had a logD of -1.09.
Compound `O=C1c2ccccc2C(=O)C1(O)O` showed a logP of 0.67.
On the same count and under the same terms, for `Cc1ccc2c(=O)[nH]c(=O)[nH]c2c1` the value was 0.55; for `N#CC(=Cc1ccccc1)C(=O)Nc1ccccc1`, 3.41.
`CCCC(O)CCC` registered a logP of 2.22.
With `CC1(C)OCCO1`, the logP came out at 0.46.
Still for that read-out and setting: then `CC(N)=S`, with -0.26; and `CCOCCCl`, with 0.98.
Regarding `COc1ccc(OC(=O)CNC(=O)c2ccccc2)cc1`, the logP is 2.28.
Where the note is “pH 5.0”, `CC(C)c1cccc(O)c(=O)c1` displayed a logD of 1.82.
Compound `c1ccc(CNc2ccccc2)cc1` had a logP of 3.13.
On the same count and under the same terms, then `CC(=O)c1ccc[nH]1`, with 0.93; and `O=C1CCCCO1`, with -0.35; and `CN(C)C(=S)Nc1ccccc1`, with 1.04.
The compound `CO/N=C/CCc1ccccc1` showed a logD (pH 7.4) of 2.14.
In turn, `CC(=O)C(=Cc1ccc(Br)cc1)C(C)=O` showed a logP of 2.75.
Same read-out and setting: then `CCCC=O`, with 0.88.
On the same count and under the same terms, then `CCOC(=O)CON=Cc1ccc(OCC(=O)OCC)c(OC)c1`, with 1.87; and `CC(=O)N[C@@H]1CC(=O)N(c2ccc(Cl)cc2)C1=O`, with 0.75; and `CCC(O)CC`, with 1.21.
On the same count and under the same terms, for `O=C(CCl)Nc1ccc(Cl)c(Cl)c1` the value was 3.29; for `Cc1ccc(OC(=O)CNC(=O)c2ccccc2)cc1`, 2.83.
As to `CN(C)/N=N/c1ccccc1C(N)=O`, under “pH 7.4”, the logD was determined as 1.73.
On to `O=Cc1cccs1`, for which the logP worked out at 1.02.
For `CCCCNc1c(C)n(C)c(=O)n(-c2ccccc2)c1=O`, under “pH 7.4”, the logD is 1.69.
Still for that read-out and setting: then `COc1ccccc1/N=N/N(C)C`, with 2.34.
In turn, `CNP(=O)(OC)Oc1ccc(C(C)(C)C)cc1` (centres undefined) yielded a logP of 2.71.
The same measure, in the same setting: then `Cc1ccccc1OC(=O)N(C)C`, with 1.86; and `O=C(O)CCl`, with 0.22; and `CCOC(=O)c1csc(C=Cc2ccc([N+](=O)[O-])o2)n1`, with 1.3.
Compound `CCNCCc1cccnc1` showed a logD (pH 11.0) of 0.54.
In the case of `O=NN1CCOCC1`, the logP is -0.3.
In turn, `O=C1C=C(O)CCN1[C@@H]1O[C@H](CO)[C@@H](O)[C@H]1O` returned a logD (pH 7.4) of -2.28.
Consider `C/C=C/c1ccccc1`, for which the log partition coefficient (logP) was determined as 3.35.
Same read-out and setting: for `NC(=S)c1ccccc1N` the value was 0.99.
Take `CC(CN1CC(=O)NC(=O)C1)N1CC(=O)NC(=O)C1` (centres undefined): the logD (pH 7.4) is -1.74.
Take `CCC1(C(C)CC(C)O)C(=O)NC(=O)NC1=O` (centres undefined): the logP stood at 0.35.
On the same count and under the same terms, for `c1ccc(-n2cccn2)cc1` the value was 2.2.
With `Nc1ncnc2nc(-c3ccccc3)[nH]c12`, the logD (pH 7.3) was 2.31.
`CC(=O)OCC1=C(C(=O)O)N2C(=O)C(NC(=O)Cc3ccccc3)C2SC1` (centres undefined) showed a logD (pH 3.0) of 0.2.
In turn, `COC(=O)Cc1ccsc1` returned a logP of 1.46.
Turning to `CO[C@H]1[C@@H](O)[C@@H](C)O[C@H](O[C@H]2[C@H](Oc3cccc4c(O)c5c(=O)oc6ccc(C)c7c(=O)oc(c34)c5c67)O[C@H](C)[C@H](O)[C@@H]2O)[C@@H]1O`, the logD (pH 7.0) is 1.8.
`CN(C)C(=O)Nc1ccc([N+](=O)[O-])cc1`: the logP came out at 1.51.
On the same count and under the same terms, for `CC(=O)Nc1ccccc1C#N` the value was 0.57; for `CC(C)(C)c1ccc(C(N)=O)cc1`, 2.51.
`Cc1c(N(C)C)c(=O)n(C)c(=O)n1-c1ccccc1` showed a logD (pH 7.4) of 1.19.
Turning to `O=S1(=O)NC(C(Cl)Cl)=Nc2cc(Cl)ccc21`, the log partition coefficient (logP) amounted to 1.81.
For the setting “pH 7.3”, `Nc1ncnc2nc(-c3cccc([N+](=O)[O-])c3)[nH]c12` came in with a logD of 1.93.
Compound `CC(C)N(Cc1cccnc1)C(C)C` displayed a logD (pH 11.0) of 2.27.
For the compound `CC1(C)N=C(N)N=C(N)N1c1cccc(COc2cccc(NC(N)=O)c2)c1`, the logD (pH 13.0) was found to be 0.9.
Compound `CNC(=O)ON=CC(C)(C)[N+](=O)[O-]` came in with a logP of 0.36.
On the same count and under the same terms, for `O=[N+]([O-])c1ccc(O[C@@H]2O[C@H](CO)[C@@H](O[C@H]3O[C@H](CO)[C@@H](O)[C@H](O)[C@H]3O)[C@H](O)[C@H]2O)cc1` the value was -1.39.
The same measure, in the same setting: then `CC(=O)c1ccc2ncccc2c1`, with 1.58.
Same read-out and setting: then `CNC(N)=NC#N`, with -0.77; and `CC1=Nc2ccc(Br)cc2S(=O)(=O)N1`, with 1.37; and `CCCCNC(=O)n1c(NC(=O)OC)nc2ccccc21`, with 2.42.
Consider `c1cnc2ccc3ncccc3c2c1`, for which the logP was found to be 2.05.
On the same count and under the same terms, then `CS(=O)(=O)NN=Cc1ccccc1`, with 1.2.
Still for that read-out and setting: then `c1ccc(Sc2ccccc2)cc1`, with 4.45; and `O=S1(=O)NC(C2=CCCC2)=Nc2ccccc21`, with 1.69.
Regarding `COCCN(N=Nc1[nH]cnc1C(N)=O)C(C)(C)C`, under “pH 4.2”, the logD came to 1.14.
In turn, `OCc1cccc(C(F)(F)F)c1` had a logP of 2.24.
The same measure, in the same setting: then `CC1CCCCC1(C)NC(=O)N(CCCl)N=O` (centres undefined), with 2.57.
Regarding `CCC[C@@H]1C[C@@H](C(=O)N[C@@H]([C@H]2O[C@H](SCC)[C@H](O)[C@@H](O)[C@H]2O)[C@@H](C)O)N(CC)C1`, the log distribution coefficient (logD) (pH 12.0) is 1.91.
`Cc1csc(N=C(N)N)n1` showed a logP of 1.24.
With `CN(C)/N=N/c1ccccc1I`, under “pH 2.0”, the logD stood at 3.5.
For the compound `O=C(O)COc1ccc(Cl)c(Br)c1`, the logP was determined as 2.75.
Same read-out and setting: for `OCC(F)(F)F` the value was 0.32; for `N#CC(Cl)(Cl)Cl`, 2.09.
On the same count and under the same terms, then `Fc1c(F)c(F)c(F)c(F)c1F`, with 2.22; and `O=C(O)Cc1ccc(S(=O)(=O)F)cc1`, with 1.86.
Still for that read-out and setting: then `O=[N+]([O-])c1ccc(/C=C/c2cccc(CO)n2)o1`, with 1.37; and `CC(=C(C#N)C#N)c1ccccc1`, with 2.1.
In turn, `O=C(O)c1ccc(C(F)(F)F)cc1` registered a logP of 3.1.
Still for that read-out and setting: then `COC(=O)[C@@]12OC[C@@]34[C@H](C[C@@H]5C(C)=C(O)C(=O)C[C@]5(C)[C@H]3C(O)C1O)OC(=O)C(OC(=O)C=C(C)C(C)C)[C@@H]42` (some centres undefined), with 1.66; and `Clc1ccc2ncccc2c1`, with 2.73.
The same measure, in the same setting: then `O=[N+]([O-])c1ccc(C=Cc2nc[nH]n2)o1`, with 1.1.
On the same count and under the same terms, then `CCCCO[N+](=O)[O-]`, with 2.15; and `CCOP(=O)(N1CC1(C)C)N1CC1(C)C` (centres undefined), with 1.02.
Regarding `CSCC1=C(C(=O)O)N2C(=O)C(NC(=O)Cc3cccs3)C2SC1` (centres undefined), under “pH 3.0”, the logD was 1.01.
Consider `O/N=C/CCc1ccccc1`, for which, where the note is “pH 7.4”, the logD was 1.56.
`COc1cc(C=O)ccc1OCCO` showed a logP of 0.58.
`Oc1cc(O)cc(O)c1` gave a logD (pH 1.4) of 0.16.
`CC(=O)OCC1=C(C(=O)O)N2C(=O)[C@@H](NC(=O)CBr)[C@H]2SC1` registered a logD (pH 3.0) of -0.7.
As for `NC(=O)c1ncn2c(=O)n(CCCl)nnc12`, the logP is -0.47.
On the same count and under the same terms, then `CSSC`, with 1.77; and `CN(C)C(=O)Nc1ccc(OCc2ccc(Cl)cc2Cl)cc1`, with 4.1.
Consider `O=[N+]([O-])c1ccc2oncc2c1`, for which the logD (pH 5.0) was determined as 1.46.
Consider `CCC(C)C(=O)Nc1ccccc1` (centres undefined), for which the logP came to 2.56.
